Experimental data reported in paper PMC11500415, “Chemical inhibition of stomatal differentiation by perturbation of the master-regulatory bHLH heterodimer via an ACT-Like domain” (Nature Communications, 2024).

Experiment: Stability with acid or base in organic solvent
Type: physicochemical
Settings: 1,2-dichloroethane, 40 °C, 3 h
Excerpt: To examine the stability of Stomidazolone and identify any degraded products (if unstable), we treated Stomidazolone with an acid or a base. […] The major degraded product under basic conditions was isolated with gel-permeation chromatography (GPC) in 48% yield. The product, which we designated as lzx103 (compound 4), was identified as (phenylsulfonyl)benzimidamide[39] through ^1H and ^13C NMR analyses (Supplementary Fig. 3a, Supplementary Data 1). […]
show any biological activity on stomatal development (see Revised Fig. S3), thus ruling out the possibility that the inhibition of stomatal differentiation is attributable to the degradation product rather than Stomidzaolone itself. The yield of Izx103 was determined through isolation. Please see the schematics below (presented as Fig. S3). These new findings are described in detail in our Revised Results section (see Page 6 "Stability of […]
with CH COOH (3.1 equiv.) HN […]
with NaOH (3.1 equiv.) NH2 […]
The authors should also provide a better 13C NMR spectrum of the compound in the SI, the current copy features rather weak signal intensities and some signals can only be suspected.
We re-synthesized Stomidazolone and substituted with a better 13C NMR spectrum of Stomidazolone in our revised Document S1. Thank you.
Finally, it should be mentioned in the MS right from the beginning that the compound is a racemic mixture (see also point 2 for this).
We sincerely appreciate Reviewer 2 for raising an important point. Please see our […]
observed effects are caused by Stomidazolone-mediated modulation of MUTE function. The authors use SIM1 during the plant assays which is however not an optimal control as it is not […]
in the biochemical assays, while active compounds are in contrast active in both assay types.
An almost optimal control for these phenotypic and biochemical assays in my view are the two enantiomers of Stomidazolone. […]

Compound: O=C1C(c2ccccc2)=NC(NS(=O)(=O)c2ccccc2)(c2ccccc2)N1S(=O)(=O)c1ccccc1 (stereo not drawn) [Stomidazolone]
- stability under acidic conditions (3 equiv. of acetic acid): stable
- stability under basic conditions (3 equiv. of sodium hydroxide): completely degraded
- recovered by 1H NMR analysis (CH3COOH (3.1 equiv.)): 93%
